Experimental data from EP4603105A1, “PHARMACEUTICAL COMPOSITION CONTAINING CYCLIC COMPOUND HAVING SELECTIVE KRAS INHIBITORY EFFECT AGAINST HRAS AND NRAS” (CHUGAI SEIYAKU KABUSHIKI KAISHA, priority 2022, dated 2024).
Where a SMILES comes first, the peptide text is derived from it. Bridges are numbered along the chain shown (N, C = ends). [ ]: non-standard residue; d: D form. The star is where a group is joined. hPhe(3-Cl-4-CF3) = N[C@@H](CCc1ccc(C(F)(F)F)c(Cl)c1)C(=O)O; NPrPhe(4-CF3) = CCCN[C@@H](Cc1ccc(C(F)(F)F)cc1)C(=O)O; NMeGly(cPent) = CN[C@H](C(=O)O)C1CCCC1; NMeL = CN[C@@H](CC(C)C)C(=O)O; Morpholide = C1CN(*)CCO1; Aze = O=C(O)[C@@H]1CCN1; Ac4c = NC1(C(=O)O)CCC1; Sar = CNCC(=O)O

Assays:
HRAS wild-type protein = HRAS wild-type protein (Homo sapiens, UniProt P01112); experiment: Binding to HRAS by surface plasmon resonance (SPR), KD and KD ratio to KRAS
In short: (§1)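 Single-cycle kinetics on GDP-loaded biotin-Avi RAS captured to ~100–300 RU; 75 s ascending injections, 100 µL/min, 30°C. HBS pH 7.4 + 10 mM MgCl2/10 µM GDP/4% DMSO. 1:1 fit, KD.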

[1] = target: GDP-bound NRAS wild-type protein (Homo sapiens, UniProt P01111); experiment: Binding to NRAS by surface plasmon resonance (SPR), KD and KD ratio to KRAS
In short: as §1

[2] = target: GDP-bound KRAS wild-type protein (Homo sapiens, UniProt P01116); experiment: Binding to KRAS by surface plasmon resonance (SPR), dissociation constant KD; conditions: 1:1 binding model
In short: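 Running buffer contained 10 µM GDP and 10 mM MgCl2 to keep RAS in the GDP state, with 4% DMSO at pH 7.4. Compounds were flowed at 100 µL/min in 75 s steps of rising concentration over captured biotin-Avi RAS at 30°C. Sensorgrams were fitted 1:1 for KD.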

[3] = system: human lung cancer strain NCI-H441; format: cell-based
In short: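 Proliferation was scored by […] measured after the reagent was added to cultures kept at 37°C in 5% carbon dioxide.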

[4] = ratio of KD for HRAS wild-type protein to KD for KRAS
[5] = ratio of KD for GDP-bound NRAS wild-type protein to KD for KRAS
[6] = ratio of KD value for HRAS wild-type protein to KD value for KRAS (SPR)
[7] = ratio of KD value for GDP-bound NRAS wild-type protein to KD value for KRAS (SPR)

HRAS wild-type protein, sequence (P01112 whole entry): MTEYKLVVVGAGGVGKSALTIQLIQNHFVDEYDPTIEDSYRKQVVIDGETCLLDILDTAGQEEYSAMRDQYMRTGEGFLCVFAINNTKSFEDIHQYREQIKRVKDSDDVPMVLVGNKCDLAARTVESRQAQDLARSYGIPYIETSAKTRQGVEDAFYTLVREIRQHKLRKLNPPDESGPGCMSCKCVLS
GDP-bound KRAS wild-type protein, sequence (P01116 1-188 isoform P01116-2): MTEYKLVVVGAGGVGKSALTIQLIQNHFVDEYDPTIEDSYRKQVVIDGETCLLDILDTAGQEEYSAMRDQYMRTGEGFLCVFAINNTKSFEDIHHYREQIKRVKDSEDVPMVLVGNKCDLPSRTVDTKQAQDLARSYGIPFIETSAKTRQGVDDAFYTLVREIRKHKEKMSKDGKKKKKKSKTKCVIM
GDP-bound NRAS wild-type protein, sequence (P01111 whole entry): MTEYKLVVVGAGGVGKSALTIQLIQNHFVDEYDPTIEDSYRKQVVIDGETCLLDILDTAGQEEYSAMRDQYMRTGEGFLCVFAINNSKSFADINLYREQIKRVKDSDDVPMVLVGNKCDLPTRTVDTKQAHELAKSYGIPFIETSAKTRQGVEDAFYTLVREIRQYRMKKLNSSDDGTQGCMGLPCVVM

Structure (SMILES)	HRAS /KRAS (HRAS wild-type protein; [4])	NRAS /KRAS [1, 5]	Kd [2]	IC50 [3]	HRAS /KRAS (HRAS wild-type protein; [6])	NRAS /KRAS [1, 7]	Kd ([2]; Single Cycle Kinetics)	HRAS /KRAS (HRAS wild-type protein; ratio of the KD value with respect to HRAS wild-type protein to the KD value with respect to KRAS)	NRAS /KRAS ([1]; ratio of the KD value with respect to GDP-bound NRAS wild-type protein to the KD value with respect to KRAS)
CCO[C@@H]1C[C@H]2C(=O)NC3(CC(C)(C)C3)C(=O)N(C)[C@@H](C3CCCC3)C(=O)N(C)[C@H](C(=O)N(C)CC)CC(=O)N(C)[C@@H](CC(C)C)C(=O)N[C@@H]([C@@H](C)CC)C(=O)N(C)CC(=O)N(C)[C@H]3C/C=C\CCN(C3=O)[C@@H](Cc3ccc(C(F)F)cc3)C(=O)N(C)CC(=O)N[C@@H](CCc3cc(F)c4c(c3)OCC4)C(=O)N2C1 [PP3150]	A (a compound having 10 or more and less than 20 is denoted as A)	A (a compound having 10 or more and less than 20 is denoted as A)	2.9 nM	191 nM	–	–	–	–	–
CC[C@H](C)[C@@H]1NC(=O)[C@H](C2CC2)N(C)C(=O)C[C@@H](C(=O)N(C)C)N(C)C(=O)[C@H](C2CCCC2)N(C)C(=O)C2(CCC2)N(C)C(=O)[C@@H]2C[C@@H](C)CN2C(=O)[C@H](CCc2cc(F)c(C(F)(F)F)c(F)c2)NC(=O)CN(C)C(=O)[C@H](Cc2ccc(C)cc2)N2CC/C=C\C[C@@H](C2=O)N(C)C(=O)CN(C)C1=O [PP1788]	–	–	–	6.2 nM	B (a compound having 3 or more and less than 10 is denoted as B)	B (a compound having 3 or more and less than 10 is denoted as B)	0.063 nM	–	–
CC[C@H](C)[C@@H]1NC(=O)[C@H](CC)N(C)C(=O)C[C@@H](C(=O)N(C)C)N(C)C(=O)[C@H](C2CCCC2)N(C)C(=O)C2(CC(C)(C)C2)NC(=O)[C@@H]2C[C@@H](C)CN2C(=O)[C@H](CCc2ccc(C(F)(F)F)c(Cl)c2)NC(=O)CN(C)C(=O)[C@H](Cc2ccc(C)cc2)N2CC/C=C\C[C@@H](C2=O)N(C)C(=O)CN(C)C1=O [PP1846]	–	–	–	9.8 nM	B (a compound having 3 or more and less than 10 is denoted as B)	A (a compound having 10 or more and less than 20 is denoted as A)	0.1 nM	–	–
CCC[C@H]1C(=O)N[C@@H]([C@@H](C)CC)C(=O)N(C)CC(=O)N(C)[C@H]2C/C=C\CCN(C2=O)[C@@H](Cc2ccc(C(F)(F)F)cc2)C(=O)N(C)CC(=O)N[C@@H](CCc2ccc(C(F)(F)F)c(F)c2)C(=O)N2C[C@H](F)C[C@H]2C(=O)NC2(CC(C)(C)C2)C(=O)N(C)[C@@H](C2CCCCC2)C(=O)N(C)[C@H](C(=O)N(C)C)CC(=O)N1C [PP3122]	B (a compound having 3 or more and less than 10 is denoted as B)	A (a compound having 10 or more and less than 20 is denoted as A)	0.4 nM	11.1 nM	–	–	–	–	–
CCCN1C(=O)CN(C)C(=O)[C@@H]2CCN2C(=O)[C@H]([C@@H](C)CC)NC(=O)[C@H](CC(C)C)N(C)C(=O)C[C@@H](C(=O)N2CCOCC2)NC(=O)[C@H](C2CCCC2)N(C)C(=O)C2(CCC2)NC(=O)[C@@H]2CCCN2C(=O)[C@H](CCc2ccc(C(F)(F)F)c(Cl)c2)NC(=O)CN(C)C(=O)[C@@H]1Cc1ccc(C(F)(F)F)cc1 [PP0338] ([NMeL]I[Aze][Sar][NPrPhe(4-CF3)][Sar][hPhe(3-Cl-4-CF3)]P[Ac4c][NMeGly(cPent)]D-Morpholide; lactam N-11)	B (a compound having 3 or more and less than 10 is denoted as B)	B (a compound having 3 or more and less than 10 is denoted as B)	3.6 nM	296 nM	–	–	–	–	–
CCO[C@@H]1C[C@H]2C(=O)NC3(CCC3)C(=O)N(C)[C@@H](C3CCCC3)C(=O)N(C)[C@H](C(=O)N(C)C)CC(=O)N(C)[C@@H](CC3CCCC3)C(=O)N[C@@H]([C@@H](C)CC)C(=O)N(C)CC(=O)N(C)[C@H]3C/C=C\CCN(C3=O)[C@@H](Cc3ccc(C)cc3)C(=O)N(C)CC(=O)N[C@@H](CCc3ccc(CC)c(F)c3)C(=O)N2C1 [PP2686]	A (a compound having 10 or more and less than 20 is denoted as A)	A (a compound having 10 or more and less than 20 is denoted as A)	3.3 nM	162 nM	–	–	–	–	–
CCCOC[C@H]1C(=O)N[C@@H]([C@@H](C)CC)C(=O)N(C)CC(=O)N(C)[C@H]2C/C=C\CCN(C2=O)[C@@H](Cc2ccc(C(F)(F)F)cc2)C(=O)N(C)CC(=O)N[C@@H](CCc2ccc(C(F)(F)F)c(OC)c2)C(=O)N2C[C@@H](C)C[C@H]2C(=O)NC2(CCC2)C(=O)N(C)[C@@H](C2CCCC2)C(=O)N(C)[C@H](C(=O)N(C)CC)CC(=O)N1C [PP2027]	–	–	–	14 nM	–	–	0.11 nM	B (a compound having 3 or more and less than 10 is denoted as B)	A (a compound having 10 or more and less than 20 is denoted as A)
CC[C@H](C)[C@@H]1NC(=O)[C@H](CC)N(C)C(=O)C[C@@H](C(=O)N(C)C)N(C)C(=O)[C@H](C2CCCC2)N(C)C(=O)C2(CCC2)N(C)C(=O)[C@@H]2CCCN2C(=O)[C@H](CCc2cc(F)c(C(F)(F)F)c(F)c2)NC(=O)CN(C)C(=O)[C@H](Cc2ccc(C)cc2)N2CC/C=C\C[C@@H](C2=O)N(C)C(=O)CN(C)C1=O [PP1782]	–	–	–	6.7 nM	B (a compound having 3 or more and less than 10 is denoted as B)	A (a compound having 10 or more and less than 20 is denoted as A)	0.044 nM	–	–
